# Values quoted from earlier work in US20180036237A1, “OIL/SURFACTANT MIXTURES FOR SELF-EMULSIFICATION” (priority 2015, published 2018).
# Conditions: single surfactant
substance,measurement,value
polyoxyethylene cetostearyl ether,HLB,13.5
